Like-named read-outs stand apart in the source and are kept apart here.
Columns and labels:
[1] = test system: Plasmodium falciparum NF-54 strain; test: In vitro antiplasmodial activity, [3H]hypoxanthine incorporation, NF-54 strain; type: cell-based; details: 48 h, read-out: IC50 μM ± SD NF-54
Method: (§1) A 10 mg/mL stock solution was prepared. […] A 50 μL sample was extracted from this solution and adjusted to 1,000 μL with RPMI-1640 without hypoxanthine until a final 500 μg/mL concentration was reached. The P. falciparum FcB-2 (Colombia) and NF54 (The Netherlands) strains were used for assessing anti-malarial activity.
(§2) Trager and Jensen’s method was used for culturing strains [24, 25]. The methods described by Desjardins et al. [26] were used for evaluating the structural analogs’ in vitro antiplasmodial activity, with some modifications. […] 1.0 µCi/mL of [3H] hypoxanthine (MP Biomedicals, Santa Ana, CA, USA) was added to each well and the plates were then incubated for 48 h at 37 °C in 5% CO2, 5% O2 in a balanced N2 atmosphere. Parasite DNA was harvested and radioactivity was determined by automatic TDCR liquid scintillation counter plate (Chameleon, Hidex Oy, Finland). Experiments were repeated twice with two or three replicates each. A nonlinear regression sigmoidal dose-response (variable slope) model was used to estimate concentration inhibiting 50% growth (IC50) values for each derivative.

[2] = test system: Plasmodium berghei (ANKA strain); test: Peters' 4-day suppressive test in P. berghei-infected mice; type: in vivo, Plasmodium berghei in Balb/C mice; details: for reduction in parasitemia: 4 daily doses
Method: Antimalarial activity was expressed as the percentage of parasite multiplication inhibition.
Antimalarial activity was assessed in vivo in the P. berghei rodent malaria model according to Peters’ 4-day suppressive test in P. berghei-infected (ANKA strain), 5–6 week-old Balb/C mice (males and females) weighing 23 ± 5 g; parasitemia kinetics were evaluated following treatment [2]. […] The donor mice were anesthetized with a 5 mg/kg xylazine and 50 mg/kg ketamine cocktail; blood was then collected via intracardiac route and 100 uL of 5 × 10^6 P. berghei ANKA-parasitised parasitized erythrocytes per experimental mouse were inoculated. Mouse infection was checked one day later by thin smear blood test and Giemsa staining.

[3] = test system: Plasmodium falciparum FCB-2 (chloroquine-resistant) strain; test: In vitro antiplasmodial activity, [3H]hypoxanthine incorporation, FCB-2 strain; type: cell-based; details: for RI (resistance index): IC50 FCB-2 (resistant strain)/IC50 NF-54 (sensitive strain); for antiplasmodial activity (in words): P. falciparum FCB-2 and NF-54 strains, compared to diosgenone or parent
Method: as §1, §2

[4] = Cytotoxicity, MTT colorimetric test; type: cell-based, human; details: human
Method: (§3) Steroidal derivatives’ cytotoxicity regarding the HepG2-A16 cell line was evaluated by colorimetric test using 3-(4,5-dimethylthiazolyl-2)-2,5-diphenyltetrazolium bromide (MTT), as described by Mosmann [28]. […] An aliquot of each derivative dilution (100 μL, 1,000, 100, 10 and 1 μg/mL) was then added to the wells in triplicate. […] The DMSO diluent agent was evaluated in complete medium and negative controls (untreated cells) were included. Absorbance was measured at 550 nm and statistical Prism software version 5.0 (GraphPad Software Inc., La Jolla, CA, USA) was used for calculating toxic concentration (CC50). Amphotericin B was used as positive control in this assay.

[5] = test system: Plasmodium falciparum FCB-2 (chloroquine-resistant) strain; parameters: method as in doi:10.1016/S0040-4020(98)00632-2, PMID 11807967; details: reported earlier; cited from earlier work
[6] = test system: HepG2-A16 human hepatoma cells; test: Cytotoxicity, MTT colorimetric test; type: cell-based; details: for SI (selectivity index): CC50 HepG2/IC50 parasite FCB-2
Method: as §3

[7] = P. falciparum NF-54 chloroquine-sensitive strain
[8] = Plasmodium falciparum, 48 h, P. falciparum FCB-2 chloroquine-resistant strain, 48 h, read-out: IC50 μM ± SD FCB-2

| SMILES | IC50 [1] | reduction of parasitemia ([2]; 5 mg/kg oral, second day of treatment) | IC50 ([3]; Plasmodium falciparum, 48 h, read-out: IC50 μM ± SD FCB-2) | IC50 ([3]; Plasmodium falciparum, read-out: IC50 in the FCB-2 strain) | CC50 at 48 h [4] | antiplasmodial activity against FcB-2 chloroquine-resistant strains (in words) [5] | IC50 [1, 7] | in vivo effect on parasites (in words) ([2]; 100 mg/kg oral) | parasitaemia (parasitized erythrocytes) ([2]; 100 mg/kg oral, fifth day post treatment, vehicle controls 36.0%) | IC50 [3, 8] | SI (selectivity index) [6] | RI (resistance index) [3] | IC50 ([3]; P. falciparum FCB-2 chloroquine-resistant strain, 48 h, read-out: IC50 μM ± SD FCB-2) | melting point | reduction in parasitemia ([2]; 100 mg/kg oral) | cytotoxicity (in words) [6] | antiplasmodial activity (in words) [3] |
| --- | --- | --- | --- | --- | --- | --- | --- | --- | --- | --- | --- | --- | --- | --- | --- | --- | --- |
| CCN(CC)CCCC(C)Nc1ccnc2cc(Cl)ccc12 (stereo not drawn) [CQ, chloroquine, reference compound] | 0.02 ± 0.005 µM | 100.0% | 0.157 ± 0.01 µM | 0.158 µM |  |  |  |  |  |  |  |  |  |  |  |  |  |
| C[C@@H]1CC[C@@]2(OC1)O[C@H]1C[C@H]3[C@@H]4CCC5=CC(=O)CC[C@]5(C)[C@H]4CC[C@]3(C)[C@H]1[C@@H]2C [Compound 2, (25R)-4-Spirosten-3-one] |  |  |  |  | 265 µM | have antiplasmodial activity | 35.4 ± 2.2 µM | no decrease in the amount of parasites | 50.0% | 27.9 ± 5.5 µM |  |  |  |  |  |  |  |
| CC(=O)O[C@H]1CC2C3CCC4=CC(=O)CC[C@]4(C)C3CC[C@]2(C)[C@H]1[C@H](C)C(=O)CC[C@@H](C)CO (stereo partly drawn) [Compound 3] |  |  |  |  | 60 µM | have antiplasmodial activity | 33 ± 0.8 µM |  |  | 21.4 µM | 2.8 | 0.6 | 21.35 ± 0.2 µM |  |  |  |  |
| C[C@@H](CO)CCC(=O)[C@@H](C)[C@H]1[C@@H](O)CC2C3CCC4=CC(=O)CC[C@]4(C)C3CC[C@@]21C (stereo partly drawn) [Compound 4] |  |  |  |  | 2150 µM | have antiplasmodial activity | 248 ± 5.3 µM |  |  | 223 ± 12.3 µM | 9.6 | 0.9 |  |  |  |  |  |
| CC1CCC2(OC1)OC1(O)CC3C4CCC56OC5C(=O)CCC6(C)C4CCC3(C)C1C2C [Compound 14, (25R)-4,5-Epoxy-spirostan-16α-hydroxy-3-one] |  |  |  |  | 153 µM |  | 8.5 ± 2.3 µM |  |  | 10.1 ± 1.3 µM | 15.2 | 1.2 |  | 145 to 147 °C | 36.7% |  |  |
| CC(=O)OC1CC[C@@]2(C)C(=CC[C@H]3[C@@H]4C[C@@H]5O[C@]6(CC[C@@H](C)CO6)[C@@H](C)[C@@H]5[C@@]4(C)CC[C@@H]32)C1 (stereo partly drawn) [Compound 16, (25R)-3-Acetoxy-spirostan-5-ene] |  |  |  |  | > 2190 µM |  | > 438 µM |  |  | > 438 µM |  |  |  | 182 to 184 °C |  | nor toxic | neither active |
| C[C@@H]1CC[C@@]2(OC1)O[C@H]1C[C@H]3[C@@H]4CC5OC56CC(O)CC[C@]6(C)[C@H]4CC[C@]3(C)[C@H]1[C@@H]2C (stereo partly drawn) [Compound 17, (25R)-5,6-Epoxy-spirostan-3-ol] |  |  |  |  | > 2050 µM |  | 184 µM |  |  | > 409 µM |  | 2.2 |  | 97 to 99 °C |  | nor toxic | neither active |
| C[C@@H]1CC[C@@]2(OC1)O[C@H]1C[C@H]3[C@@H]4CC(=O)C5=CC(=O)CC[C@]5(C)[C@H]4CC[C@]3(C)[C@H]1[C@@H]2C [Compound 18, (25R)-4-Spirosten-3,6-dione] |  |  |  |  | 192 µM |  | 9.8 ± 1 µM |  |  | 11.3 ± 1.6 µM | 16.9 | 1.2 |  | 200 to 202 °C | 35.0% |  | more active than diosgenone |
| CC(=O)OC1C[C@H]2[C@@H]3CCC4=CC(O)CC[C@]4(C)[C@H]3CC[C@]2(C)[C@H]1[C@H](C)C(O)CC[C@@H](C)CO (stereo partly drawn) [Compound 24, (25R)-16-Acetoxy-4-cholesten-3,22,26-triol] |  |  |  |  | 306 µM |  | 101 ± 9.9 µM |  |  | 95 ± 7.3 µM | 3.2 | 0.9 |  | 144 to 146 °C |  |  |  |

Reference: article PMC6270258, “Diosgenone Synthesis, Anti-Malarial Activity and QSAR of Analogues of This Natural Product” (Molecules, 2013)
